From patent publication US20100074920A1 (priority 2006, published 2010)

Test system: serum antibodies of test subjects Serum 1B-8B
Details: sera S1B-S8B; streptavidin immobilized peptide

Biotin-aminocaproyl-SRPRVRNIP [Peptide 2B]
binding of serum antibodies (immune response), absorbance at 450 nm: especially effective in binding with certain antibodies
